The text below walks through data of patent US20110212909A1, “Use of Ginsenoside Compound K in the Preparation of a Medicament for the Prevention and Treatment of Atherosclerosis” (priority 2008, published 2011).

Marks after values point to notes of the source that are not given here.

One assay deals with CD36 mRNA. Briefly: Real-time quantitative PCR of CD36 mRNA in apo E−/− mouse aorta. In kind it is in vivo. The following applies: apo E−/− mice, 15 weeks. Here is the method: (§1) 80 healthy clean grade C57BL/6J apo E^−/^− mice of 10 weeks old, wherein male and female mice were fifty-fifty, weight 20-22 g, were breed and divided into individual cage in sterile laminar flow rack, allowing mice to freely drink water and get food. Mice were raised for 30 weeks by “Western Diet” (routine mouse feed +0.15% cholesterol +21% fat) high fat feed (^60cobalt sterilization radiation treatment), with raising conditions being SPF grade, room temperature maintained at 24° C., relative humidity of 50%, and lighting time of 7: 30-19: 30. Animal house was sterilized by ultraviolet lamp once every two days, in order to maintain sterile environment of laminar flow rack (establishment of animal model of atherosclerosis refers to reference: Barish G D, Atkins A R, Downes M, Olson P, Chong L W, Nelson M, Zou Y H, Hwang H S, Kang H J, Curtiss L, Evans R M, Lee C H. PPARδ regulates multiple proinflammatory pathways to suppress atherosclerosis. Proc Natl Acad Sci, 2008, 105 (11): 4271-4276.).
5 mice of apo E^−/^− mice raised for 15 weeks were randomly selected and sacrificed, root of aorta of which was taken, and replication condition in AS model was observed by HE staining. The remaining mice were randomly divided into 5 groups as follows (n=15): […]
Above drugs were firstly solved in DMSO, then suspended in 0.5% carboxymethylcellulose solution, mixed homogeneously, and then were administered via gavage, once a day. Mice were weighted once a week, and ingestion amounts were recorded, and drug doses were adjusted according to weight, interfering for 15 weeks. […]
• blood fat assay: TC, TG, HDL-C, and LDL-C concentrations in serum were determined by applying Olympus Au2700 fully automatic biochemical appearance. • serum inflammatory markers assay: hs-CRP and sCD40L concentrations were determined by applying double antibody sandwich ELISA, in accordance with ELISA kit operating instruction (hs-CRP ELISA kit bought from Herrenberg company, Germany; sCD40L ELISA kit bought from Bender Medsystems company, Austria). • real-time quantitative PCR analysis was carried out on expression of CD36, perilipin, ABCA1, LXRα, MMP-9 and NF-κ B mRNA in apo E^−/^− mouse aorta (a reference method: Zhang Yiguan, Li Xiaohui, Fan Jishan, Zhang Haigang, Li Shuhui, Liao Wenqiang, Pang Yan, Jia Yi. […] 2007, 27 (11): 1601-1607)0 • morphology index image analysis: When slices were HE stained, under X40 fold ordinary light microscope, artery atherosclerosis plaque area of each incisal surface was determined by “Image Pro Plus 5.0” image analysis software. […] As to Masosn staining, aortic root collagen area (CA) was measured by “Image Pro Plus 5.0” image analysis software, and collagen vessel area ratio (CA/CVA) was calculated. […]

The test system of assay [1] is AS plaque in apo E−/− mouse aorta. Briefly: Morphology index image analysis of AS plaque at aortic root (HE and MASSON staining). In kind it is in vivo. The settings on record: apo E−/− mice, 15 weeks. Here is the method: as §1
5 mice of apo E^−/^− mice raised for 15 weeks were randomly selected and sacrificed, root of aorta of which was taken, and replication condition in AS model was observed by HE staining. The remaining mice were randomly divided into 5 groups as follows (n=15):
A. model group: vehicle; B. ginsenoside compound K low dose group: ginsenoside compound K 12.5 mg/kg/day; C. ginsenoside compound K middle dose group: ginsenoside compound K 25.0 mg/kg/day; D. ginsenoside compound K high dose group: ginsenoside compound K 50.0 mg/kg/day; E. simvastatin control group: simvastatin 10.0 mg/kg/day.
Above drugs were firstly solved in DMSO, then suspended in 0.5% carboxymethylcellulose solution, mixed homogeneously, and then were administered via gavage, once a day. Mice were weighted once a week, and ingestion amounts were recorded, and drug doses were adjusted according to weight, interfering for 15 weeks. All the animal were sacrificed in 30th week.
Tissues of apo E^−/^− mice were sliced for AS plaque pathology: blood of eye sockets venous plexus of apo E−/− mice was sampled before the mice was sacrificed by cervical dislocation, and aorta was fixed by converse infusion of physiological saline comprising 4% paraformaldehyde into left ventricle, and then whole aorta was cut off from root of aorta to terminal end of abdomen aorta. Root of aorta was taken, and embedded routinely by paraffin, and slices of thickness of 5 μm were continuously cut off from root of aorta, and were subjected separately to HE staining, and MASSON staining, and then were utilized for AS plaque morphological index analysis of aortic valve cross section.
Pathological staining: […]sequent 2 pieces of slices were picked up from each incisal surface of sequent paraffin slices of aorta root per mouse, and were separately subjected to HE staining, and MASSON staining, and were observed under light microscope. […]remaining aorta was stained by Sudan IV, and was observed under light microscope.
• blood fat assay: TC, TG, HDL-C, and LDL-C concentrations in serum were determined by applying Olympus Au2700 fully automatic biochemical appearance. • serum inflammatory markers assay: hs-CRP and sCD40L concentrations were determined by applying double antibody sandwich ELISA, in accordance with ELISA kit operating instruction (hs-CRP ELISA kit bought from Herrenberg company, Germany; sCD40L ELISA kit bought from Bender Medsystems company, Austria). • real-time quantitative PCR analysis was carried out on expression of CD36, perilipin, ABCA1, LXRα, MMP-9 and NF-κ B mRNA in apo E^−/^− mouse aorta (a reference method: Zhang Yiguan, Li Xiaohui, Fan Jishan, Zhang Haigang, Li Shuhui, Liao Wenqiang, Pang Yan, Jia Yi. Total panax notoginsenosides suppress atherosclerosis formation in rats by means of antiinflammatory and blood fat regulating action. Progress in Modern Biomedicine. […]

Setting [2] is: C-K high dose 50.0 mg/kg/day gavage.
Setting [3] is: C-K middle dose 25.0 mg/kg/day gavage.
[4] abbreviates: simvastatin 10.0 mg/kg/day gavage.

In the case of `CC(C)=CCC[C@](C)(OC1OC(CO)C(O)C(O)C1O)C1CC[C@]2(C)C1[C@H](O)CC1[C@@]3(C)CC[C@H](O)C(C)(C)C3CC[C@]12C` (stereo partly drawn) [C-K, 20-O-β-D-glucopyranosyl 20-(S)-protopanaxadiol], the “expression of CD36 mRNA in aorta (relative concentrations)” value in the assay on CD36 mRNA (setting [2]) is 0.31 ± 0.08^b; in the assay on CD36 mRNA (C-K low dose 12.5 mg/kg/day gavage, model 1.12 ± 0.13) it was 0.54 ± 0.07^b; in the assay on CD36 mRNA (setting [3]), 0.47 ± 0.08^b. Also, the “CA (aortic root collagen area)” value is 0.69 ± 0.13^b mm^2 in assay [1] (setting [2]); 0.56 ± 0.14^b mm^2 in assay [1] (C-K low dose 12.5 mg/kg/day gavage, model 0.39 ± 0.13); 0.62 ± 0.09^b mm^2 in assay [1] (setting [3]). The “CA/CVA (corrected collagen area)” value in assay [1] (setting [2]) was 42.40 ± 6.74^b %; in assay [1] (C-K low dose 12.5 mg/kg/day gavage, model 22.60 ± 5.41), 33.33 ± 4.37^b %; in assay [1] (setting [3]) it was 36.08 ± 4.82^b %. Also, the “CVA (vessel cross section area)” value was determined as 1.62 ± 0.12 mm^2 in assay [1] (setting [2]); 1.68 ± 0.16 mm^2 in assay [1] (C-K low dose 12.5 mg/kg/day gavage, model 1.70 ± 0.19); 1.71 ± 0.14 mm^2 in assay [1] (setting [3]). The “LCA (lipid core area)” value is reported as 0.21 ± 0.03^b mm^2 in assay [1] (setting [2]); 0.32 ± 0.05^b mm^2 in assay [1] (C-K low dose 12.5 mg/kg/day gavage, model 0.44 ± 0.05); 0.29 ± 0.05^b mm^2 in assay [1] (setting [3]). For the same compound, the “LCA/PA (corrected lipid core area)” value in assay [1] (setting [2]) is on record as 40.01 ± 1.94^b %; in assay [1] (C-K low dose 12.5 mg/kg/day gavage, model 48.28 ± 2.71), 41.03 ± 1.32^b %; in assay [1] (setting [3]), 40.33 ± 1.18^b %. The “PA (plaque area)” value in assay [1] (setting [2]) is recorded as 0.52 ± 0.10^b mm^2; in assay [1] (C-K low dose 12.5 mg/kg/day gavage, model 0.90 ± 0.12), 0.78 ± 0.13^a mm^2; in assay [1] (setting [3]), 0.72 ± 0.12^a mm^2. For the same compound, the “PA/CVA (corrected plaque area)” value in assay [1] (setting [2]) is 32.29 ± 6.29^b %; in assay [1] (C-K low dose 12.5 mg/kg/day gavage, model 53.82 ± 10.02), 46.43 ± 7.38^a %; in assay [1] (setting [3]), 42.26 ± 8.35^a %. Further, the “mFCT (minimal fibrous cap thickness)” value was 30.65 ± 1.37^b μm in assay [1] (setting [2]); 28.48 ± 1.89^b μm in assay [1] (C-K low dose 12.5 mg/kg/day gavage, model 20.40 ± 3.31); 30.44 ± 1.75^b μm in assay [1] (setting [3]).

On to `CCC(C)(C)C(=O)O[C@H]1C[C@@H](C)C=C2C=C[C@H](C)[C@H](CC[C@@H]3C[C@@H](O)CC(=O)O3)[C@H]21` [simvastatin, reference compound], for which the “expression of CD36 mRNA in aorta (relative concentrations)” value in the assay on CD36 mRNA (setting [4]) is 0.77 ± 0.11^a. In addition, in assay [1] (setting [4]), the “CA (aortic root collagen area)” value is 0.57 ± 0.08^a mm^2, the “CA/CVA (corrected collagen area)” value was 34.73 ± 4.49^b %, the “CVA (vessel cross section area)” value was 1.65 ± 0.11 mm^2 and the “LCA (lipid core area)” value was 0.32 ± 0.04^b mm^2. For the same compound, in assay [1] (setting [4]), the “LCA/PA (corrected lipid core area)” value is reported as 43.39 ± 4.01^b %, the “PA (plaque area)” value was 0.74 ± 0.17 mm^2, the “PA/CVA (corrected plaque area)” value is 44.70 ± 8.44^a % and the “mFCT (minimal fibrous cap thickness)” value is given as 27.72 ± 2.30^b μm.
